Legend:
trigeminal neuralgia = test: Clinical efficacy in trigeminal neuralgia; assay type: in vivo, human; conditions: 150 mg tid, TN
Text: In Table 1, free plasma CMax exposures of Example 1 obtained from modelling different dosing regimens were used to quantify the resulting amount of block at the primary target hNaV1.7. […] Doses of marketed drugs used in trigeminal neuralgia were compared using the same paradigm.

[1] = 150 mg TID dosage study, pharmacokinetics; conditions: both sexes, human, in vivo
Method: A clinical trial was conducted to evaluate certain pharmacokinetic parameters of the compound of Example 1 when dosed at 150 mg TID for seven days. 15 young males and females aged 18 to 45 were scheduled to received ether the compound of Example 1 at 150 mg TID during a first period of 8 days followed by placebo during a second period of 8 days; or placebo during the first period and the compound of Example 1 during the second period.

Cmax ([1]; day 8): 2710 ng/mL
AUC(0-t) ([1]; day 8, read-out: AUC0-8): 15300 ng·h/mL
Structure (SMILES): Cl.NC(=O)[C@@H]1CC[C@H](c2ccc(OCc3ccccc3F)cc2)N1 [Example 1, (5R)-5-(4-{[(2-Fluorophenyl)methyl]oxy}phenyl)-L-prolinamide hydrochloride]
Clinical efficacy (trigeminal neuralgia): EFFICACY OBSERVED
